Reference: ChEMBL document CHEMBL5226326, “Discovery of 1-Benzoyl 4-Phenoxypiperidines as Small-Molecule Inhibitors of the β-Catenin/B-Cell Lymphoma 9 Protein-Protein Interaction” (J Med Chem, 2021)
pIC50, pKi: −log10 of the molar value.

Tests used:
[1] = biological target: T1, beta-catenin-B-cell lymphoma 9 protein complex (Homo sapiens, UniProt P35222); assay: Inhibition of full length beta-catenin (1 to 781 residues) (unknown origin) expressed in Escherichia coli BL21 (DE3)/N-terminal biotinylated human BCL9 HD2 (350 to 375 residues) protein-protein interaction incubated for 1 hr by Alphascreen assay
T1 sequence (P35222 whole entry): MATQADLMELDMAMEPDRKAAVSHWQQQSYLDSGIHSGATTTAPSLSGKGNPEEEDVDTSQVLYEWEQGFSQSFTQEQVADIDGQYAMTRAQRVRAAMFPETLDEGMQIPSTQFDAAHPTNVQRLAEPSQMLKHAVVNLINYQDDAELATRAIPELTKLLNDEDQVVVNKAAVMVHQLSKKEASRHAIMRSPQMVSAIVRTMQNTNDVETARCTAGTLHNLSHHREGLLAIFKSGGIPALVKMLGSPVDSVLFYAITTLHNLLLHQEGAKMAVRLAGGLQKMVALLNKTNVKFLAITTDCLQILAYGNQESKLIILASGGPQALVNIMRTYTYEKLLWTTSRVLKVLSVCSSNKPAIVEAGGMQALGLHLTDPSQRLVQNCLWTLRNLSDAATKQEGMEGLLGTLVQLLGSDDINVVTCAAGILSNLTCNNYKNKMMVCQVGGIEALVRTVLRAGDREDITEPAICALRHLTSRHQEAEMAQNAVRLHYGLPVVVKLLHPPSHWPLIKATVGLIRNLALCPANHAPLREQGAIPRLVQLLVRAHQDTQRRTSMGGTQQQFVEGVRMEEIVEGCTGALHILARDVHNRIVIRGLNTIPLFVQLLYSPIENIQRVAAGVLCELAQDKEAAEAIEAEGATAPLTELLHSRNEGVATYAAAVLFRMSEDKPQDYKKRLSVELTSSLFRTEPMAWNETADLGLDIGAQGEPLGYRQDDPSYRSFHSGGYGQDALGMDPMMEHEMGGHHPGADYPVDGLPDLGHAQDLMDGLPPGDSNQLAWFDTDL
T1 sequence (O00512 whole entry): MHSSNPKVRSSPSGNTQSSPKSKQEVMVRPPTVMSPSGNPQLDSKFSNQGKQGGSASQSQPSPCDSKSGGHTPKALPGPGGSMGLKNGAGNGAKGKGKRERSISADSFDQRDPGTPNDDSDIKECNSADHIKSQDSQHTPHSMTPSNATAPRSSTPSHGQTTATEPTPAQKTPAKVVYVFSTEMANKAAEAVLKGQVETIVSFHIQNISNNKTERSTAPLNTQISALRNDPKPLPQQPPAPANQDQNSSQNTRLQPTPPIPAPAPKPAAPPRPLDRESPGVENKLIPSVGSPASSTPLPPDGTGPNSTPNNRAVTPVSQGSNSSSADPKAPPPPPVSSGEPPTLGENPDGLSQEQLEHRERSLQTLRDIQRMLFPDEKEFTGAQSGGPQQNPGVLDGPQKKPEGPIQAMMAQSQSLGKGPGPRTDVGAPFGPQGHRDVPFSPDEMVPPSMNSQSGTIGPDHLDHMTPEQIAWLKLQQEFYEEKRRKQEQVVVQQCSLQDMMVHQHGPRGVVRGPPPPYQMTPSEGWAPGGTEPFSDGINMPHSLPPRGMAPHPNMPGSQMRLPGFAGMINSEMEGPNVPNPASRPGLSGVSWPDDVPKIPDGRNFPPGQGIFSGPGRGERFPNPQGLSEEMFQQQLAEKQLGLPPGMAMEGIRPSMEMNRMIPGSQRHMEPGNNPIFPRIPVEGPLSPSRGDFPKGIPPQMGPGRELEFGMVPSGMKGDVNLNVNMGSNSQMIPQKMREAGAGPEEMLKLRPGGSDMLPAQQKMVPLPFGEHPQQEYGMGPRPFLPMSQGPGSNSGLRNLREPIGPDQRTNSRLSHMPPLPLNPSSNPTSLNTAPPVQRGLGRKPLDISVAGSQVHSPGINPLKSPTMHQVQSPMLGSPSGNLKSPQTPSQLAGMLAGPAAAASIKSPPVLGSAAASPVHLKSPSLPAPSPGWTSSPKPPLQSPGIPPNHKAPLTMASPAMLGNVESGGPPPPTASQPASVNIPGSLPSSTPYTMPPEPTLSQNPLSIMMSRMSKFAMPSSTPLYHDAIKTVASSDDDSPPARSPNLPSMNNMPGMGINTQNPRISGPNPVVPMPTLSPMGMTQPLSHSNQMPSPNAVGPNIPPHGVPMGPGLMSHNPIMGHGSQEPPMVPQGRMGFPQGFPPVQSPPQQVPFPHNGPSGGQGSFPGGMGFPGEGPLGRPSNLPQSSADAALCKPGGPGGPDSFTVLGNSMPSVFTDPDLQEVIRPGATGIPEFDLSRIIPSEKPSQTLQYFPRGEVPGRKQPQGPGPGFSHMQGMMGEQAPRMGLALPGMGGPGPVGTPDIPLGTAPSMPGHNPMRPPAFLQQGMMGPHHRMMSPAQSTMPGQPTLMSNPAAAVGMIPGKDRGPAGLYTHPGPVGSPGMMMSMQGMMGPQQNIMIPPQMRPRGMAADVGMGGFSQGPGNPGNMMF

[2] = biological target: T1, beta-catenin-B-cell lymphoma 9 protein complex; assay: Inhibition of full length beta-catenin (1 to 781 residues) (unknown origin) expressed in Escherichia coli BL21 (DE3)/N-terminal biotinylated human BCL9 HD2 (350 to 375 residues) protein-protein interaction assessed as inhibition constant incubated for 1 hr by Alphascreen assay

SMILES	pIC50 [1]	pKi [2]
O=C(c1ccc(O[C@H]2CCNC2)c(C2CCCCC2)c1)N1CCC(Oc2cc(F)cc(N3CCNCC3=O)c2)CC1	< 4.00	< 4.08
CC(O)C(=O)N1CCC(c2cc(C(=O)N3CCC(Oc4cc(F)cc(N5CCNCC5)c4)CC3)ccc2O[C@H]2CCNC2)CC1 (stereo partly drawn)	4.43	4.47
O=C(c1cc(F)cc(N2CCNCC2)c1)N1CCN(C(=O)c2ccc(O[C@@H]3CCNC3)c(C3CCCCC3)c2)CC1	≤ 4.22	4.30
CC(C)C(=O)N1CCC(c2cc(C(=O)N3CCC(Oc4cc(F)cc(N5CCNCC5)c4)CC3)ccc2O[C@H]2CCNC2)CC1	4.46	4.51
NCCCC(=O)Nc1cc(F)cc(OC2CCN(C(=O)c3ccc(O[C@H]4CCNC4)c(C4CCCCC4)c3)CC2)c1	4.14	4.18
CC(C)(C)C1CCC(c2cc(C(=O)N3CCC(Oc4cc(N5CCNCC5)cc(C(F)(F)F)c4)CC3)ccc2O[C@H]2CCNC2)CC1 (stereo partly drawn)	5.37	5.44
CN(C)Cc1cn(Cc2cc(F)cc(OC3CCN(C(=O)c4ccc(O[C@H]5CCNC5)c(C5CCCCC5)c4)CC3)c2)nn1	4.10	4.14
O=C(c1ccc(O[C@H]2CCNC2)c(C2CCCCC2)c1)N1CCC(Oc2cc(F)cc(N3C[C@H]4CNC[C@H]4C3)c2)CC1	< 4.00	< 4.08
NCCC(=O)Nc1cc(F)cc(OC2CCN(C(=O)c3ccc(O[C@H]4CCNC4)c(C4CCCCC4)c3)CC2)c1	4.16	4.21
O=C(c1ccc(O[C@H]2CCNC2)c(C2CCCCC2)c1)N1CCC(Oc2cc(F)cc(N3CCC4(CC3)CNC4)c2)CC1	< 4.00	< 4.08
O=C(c1ccc(OC2CCNCC2)c(C2CCCCC2)c1)N1CCC(Oc2cc(F)cc(N3CCNCC3)c2)CC1	< 4.00	< 4.08
CC(C)(C)C1CCC(c2cc(C(=O)N3CCC(Oc4cc(N5CCNCC5)ccc4C(=O)O)CC3)ccc2O[C@H]2CCNC2)CC1 (stereo partly drawn)	< 4.00	< 4.08
O=C(c1ccc(O[C@H]2CCNC2)c(C2CCCCC2)c1)N1CCC(Oc2cc(F)cc(N3CC4(CCNCC4)C3)c2)CC1	< 4.00	< 4.08
O=C(c1ccc(O[C@H]2CCNC2)c(C2CCN(C(=O)C3CC3)CC2)c1)N1CCC(Oc2cc(F)cc(N3CCNCC3)c2)CC1	4.41	4.46
NCCC(=O)NCc1cc(F)cc(OC2CCN(C(=O)c3ccc(O[C@H]4CCNC4)c(C4CCCCC4)c3)CC2)c1	< 4.00	< 4.08
O=C(c1ccc(O[C@H]2CCNC2)c(-c2ccc3[nH]ncc3c2)c1)N1CCC(Oc2cc(F)cc(N3CCNCC3)c2)CC1	5.06	5.10
O=C(c1ccc(O[C@H]2CCNC2)c(-c2ccc3nc[nH]c3c2)c1)N1CCC(Oc2cc(F)cc(N3CCNCC3)c2)CC1	4.32	4.37
O=C(c1ccc(O[C@@H]2CCNC2)c(C2CCCCC2)c1)N1CCC(Oc2cc(F)cc(N3CCNCC3)c2)CC1	4.19	4.28
O=C(c1ccc(O[C@H]2CCNC2)c(C2CCCCC2)c1)N1CCC(Oc2cc(F)cc(N3CCNCC3)c2)CC1	4.24	4.34
O=C(c1ccc(O[C@H]2CCNC2)c(-c2ccc(C(F)(F)F)cc2)c1)N1CCC(Oc2cc(F)cc(N3CCNCC3)c2)CC1	4.74	4.80

SMILES	pIC50 [1]	pKi [2]
O=C(c1ccc(O[C@H]2CCNC2)c(-c2ccc3ccsc3c2)c1)N1CCC(Oc2cc(F)cc(N3CCNCC3)c2)CC1	5.35	5.40
NCc1cn(Cc2cc(F)cc(OC3CCN(C(=O)c4ccc(O[C@H]5CCNC5)c(C5CCCCC5)c4)CC3)c2)nn1	< 4.00	< 4.08
CC(C)(C)C(=O)N1CCC(c2cc(C(=O)N3CCC(Oc4cc(F)cc(N5CCNCC5)c4)CC3)ccc2O[C@H]2CCNC2)CC1	< 4.00	< 4.08
O=C(c1ccc(O[C@H]2CCNC2)c(-c2ccc3cn[nH]c3c2)c1)N1CCC(Oc2cc(F)cc(N3CCNCC3)c2)CC1	4.96	5.00
CC(C)(C)c1ccc(-c2cc(C(=O)N3CCC(Oc4cc(F)cc(N5CCNCC5)c4)CC3)ccc2O[C@H]2CCNC2)cc1	4.96	5.00
O=C(c1ccc(O[C@H]2CCNC2)c(-c2ccccc2)c1)N1CCC(Oc2cc(F)cc(N3CCNCC3)c2)CC1	4.33	4.38
CC(C)(CN)C(=O)NCc1cc(F)cc(OC2CCN(C(=O)c3ccc(O[C@H]4CCNC4)c(C4CCCCC4)c3)CC2)c1	< 4.00	< 4.08
O=C(c1ccc(O[C@H]2CCNC2)c(C2CCOCC2)c1)N1CCC(Oc2cc(F)cc(N3CCNCC3)c2)CC1	< 4.00	< 4.08
O=C(c1ccc(O[C@H]2CCNC2)c(-c2ccc3ccccc3c2)c1)N1CCC(Oc2cc(F)cc(N3CCNCC3)c2)CC1	5.34	5.39
CC(C)(C)C1CCC(c2cc(C(=O)N3CCC(Oc4cc(N5CCNCC5)ccc4Cl)CC3)ccc2O[C@H]2CCNC2)CC1 (mixture of isomers)	5.57	5.66
CC(C)(C)C1CCC(c2cc(C(=O)N3CCC(Oc4cc(N5CCNCC5)cc(F)c4F)CC3)ccc2O[C@H]2CCNC2)CC1 (mixture of isomers)	5.43	5.51
CC(C)(C)C1CCC(c2cc(C(=O)N3CCC(Oc4cc(Cl)cc(N5CCNCC5)c4)CC3)ccc2O[C@H]2CCNC2)CC1 (mixture of isomers)	5.37	5.44
CC(C)(C)C1CCC(c2cc(C(=O)N3CCC(Oc4ccc(F)c(N5CCNCC5)c4)CC3)ccc2O[C@H]2CCNC2)CC1 (mixture of isomers)	5.17	5.25
CC(C)(C)C1CCC(c2cc(C(=O)N3CCC(Oc4cc(C#N)cc(N5CCNCC5)c4)CC3)ccc2O[C@H]2CCNC2)CC1 (mixture of isomers)	5.28	5.36
O=C(c1ccc(O[C@H]2CCNC2)c(C2CCC(C(F)(F)F)CC2)c1)N1CCC(Oc2cc(F)cc(N3CCNCC3)c2)CC1 (mixture of isomers)	4.70	4.89
CC(C)(C)C1CCC(c2cc(C(=O)N3CCC(Oc4cc(N5CCNCC5)ccc4F)CC3)ccc2O[C@H]2CCNC2)CC1 (mixture of isomers)	5.21	5.30
COC(=O)c1ccc(N2CCNCC2)cc1OC1CCN(C(=O)c2ccc(O[C@H]3CCNC3)c(C3CCC(C(C)(C)C)CC3)c2)CC1 (mixture of isomers)	4.77	4.85
CC(C)(C)C1CCC(c2cc(C(=O)N3CCC(Oc4cccc(N5CCNCC5)c4)CC3)ccc2O[C@H]2CCNC2)CC1 (mixture of isomers)	4.70	4.77
CC(C)(C)C1CCC(c2cc(C(=O)N3CCC(Oc4cc(F)cc(N5CCNCC5)c4)CC3)ccc2O[C@H]2CCNC2)CC1 (mixture of isomers)	5.44	5.49
